From patent publication US20030109529A1, “Use of s-triazines for treating Apicomplexan parasitic infections” (priority 1999, published 2003)

Key:
[1] = system: wild type Plasmodium falciparum; test: In vitro red blood cell culture infected with wild type Plasmodium falciparum, percent RBCs infected; type: cell-based; conditions: for effectiveness compared with chloroquine (text to Table 2): 2.0-0.02 μM
Experimental: The in vitro method used to test the anti-malarial effectiveness of various s-triazines was adapted from Trager, 1994, Methods in Cell Biology Vol 45:7-26.
(§1) Briefly, a red blood cell suspension at a malarial (wild type Plasmodium falciparum) infection rate of approximately 1% was added to each well of a 96 well micro titer plate. The test compound was added to the cultures at final concentrations of 2.0, 0.2 or 0.02 μM. and incubated in an environment of 5% CO2, 5% O2 and 90% N2 at 37° C. Every 24 hrs the dish was removed, 100 μl of spent medium removed and 100 μl of fresh, compound containing-medium was added back to each well. This procedure was repeated daily.
(§2) At 48 hrs and again at 96 hrs, blood smears were made from each well and 500 Red Blood Cells (RBCs) were counted and inspected for malarial infection. The percent infection rate was then determined for each experimental condition tested.
(§3) Malaria parasite (P. falciparum) was grown in culture as described previously. At 48 hours and 96 hours of treatment, red blood cells were taken from culture and the percent red blood cells infected with the parasite was determined by microscopic examination.
The data in Table 2 represent percent red blood cell (RBC) infection rate at 48 hrs of treatment with the antimalarial test compound. Control cultures were 35% RBC infected.

[2] = system: mefloquine resistant P. falciparum (Mfl res); test: In vitro RBC culture, mefloquine resistant P. falciparum; type: cell-based, Plasmodium falciparum; conditions: for percentage of RBCs infected with mefloquine-resistant P. falciparum: Example 3, 48 hrs or 96 hrs after treatment; for Red Blood Cell Infection Rate: mefloquine-resistant, 96 hrs of treatment, 0.02 μM, control 24
Experimental: as §1, §2
The procedure set forth in Example 1 is utilized for testing the effectiveness of mefloquine and atrazine against mefloquine-resistant P. falciparum.
as §3

[3] = system: chloroquine resistant P. falciparum (Clq res); test: In vitro RBC culture, chloroquine resistant P. falciparum; type: cell-based, Plasmodium falciparum; conditions: for percentage of RBCs infected with chloroquine-resistant P. falciparum: Example 2, 48 hrs or 96 hrs after treatment; for Red Blood Cell Infection Rate: chloroquine-resistant, 96 hrs of treatment, 0.02 μM, control 28
[4] = system: multi-drug resistant P. falciparum (MDR); test: In vitro RBC culture, multi-drug resistant P. falciparum; type: cell-based, Plasmodium falciparum; conditions: for Red Blood Cell Infection Rate: multidrug-resistant, 96 hrs of treatment, 0.02 μM, control 25
Experimental: as §1, §2, §3

[5] = system: antifolate-resistant P. falciparum; test: In vitro RBC culture, antifolate-resistant P. falciparum; type: cell-based, Plasmodium falciparum; conditions: Example 4, 48 hrs or 96 hrs after treatment
Experimental: as §1, §2
The procedure set forth in Example 1 is utilized for testing the effectiveness of triazine and atrazine against antifolate-resistant P. falciparum.

[6] = system: wild type rodent malaria (Plasmodium berghi); test: In vitro evaluation against wild type rodent malaria; type: cell-based; conditions: Experiment 5, 48 hrs or 96 hrs after treatment
Experimental: as §1, §2
The procedure set forth in Example 1 is utilized for testing compounds against wild type rodent malaria (Plasmodium berghi).

Plasmodium berghi = test: In vivo evaluation against Plasmodium berghi in Lewis rats, intravenous treatment; set-up: species or system rat; conditions: 20 mg/kg I.V., 24 and 48 hrs
Experimental: In vivo testing was performed using juvenile female Lewis rats. Rats were inoculated intraperitoneally with 30,000,000 Plasmodium berghi infected RBCs. Rats were bled daily from the tail vein and, when parasitemia reached 1-3%, therapy was begun.
Blood smears were obtained at 24 and 48 hrs. The percent RBCs infected was then calculated after counting and inspecting 500 RBCs for each rat.

Toxoplasma gondii = test: In vitro anti-Toxoplasma test in human foreskin fibroblasts; type: cell-based; conditions: 24 hrs after treatment
Experimental: Human foreskin fibroblasts are grown to confluency in 12 well plates. Next, Toxoplasma gondii is added to the plates. The resultant cultures are treated with the test compound 24 hrs later. […]

wild type yeast = test: Yeast assay for antifolate activity, wild type yeast; type: cell-based, Saccharomyces cerevisiae; conditions: 48 hours of treatment
[7] = system: yeast transfected with malarial dihydrofolate reductase (folate sensitive); test: Yeast assay for antifolate activity, folate sensitive yeast; type: cell-based, Saccharomyces cerevisiae; conditions: 48 hours of treatment
Experimental: (§4) We have established a in vitro yeast assay model for determining sensitivity to antifolate anti-malarials.
(§5) Saccharomyces cerevisiae was grown in culture and after 48 hours of treatment as described below the growth of the yeast was determined. Control (i.e., yeast grown with no treatment) is considered to be 100% growth. Drug treatment was then related to the controls as a percent of control growth. S. cerevisiae types tested included wild type yeast, yeast made sensitive to antifolate antimalarials by transfecting yeast with malarial dihydrofolate reductase (folate sensitive or folate sen), yeast transfected but not sensitive to antifolate antimalarials (folate insensitive or folate insen).

[8] = system: yeast transfected but not sensitive to antifolate antimalarials (folate insensitive); test: Yeast assay for antifolate activity, folate insensitive yeast; type: cell-based, Saccharomyces cerevisiae; conditions: 48 hours of treatment
Experimental: as §4, §5

calf DHFR = biological target: T1, calf DHFR (Bos taurus, UniProt P00376); test: DHFR enzyme assay, calf liver homogenate; type: biochemical
T1 construct: tested using homogenates of calf liver, rat liver and cultures of P. falciparum; from tissue; host or cells: calf liver homogenate
T1 sequence (P00376 1-187): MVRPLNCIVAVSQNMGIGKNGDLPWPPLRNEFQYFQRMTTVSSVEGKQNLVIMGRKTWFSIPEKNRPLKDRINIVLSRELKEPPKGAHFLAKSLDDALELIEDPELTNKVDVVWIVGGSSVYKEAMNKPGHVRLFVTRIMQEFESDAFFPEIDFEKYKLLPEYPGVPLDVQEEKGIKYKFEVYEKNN
Experimental: (§6) The ability of atrazine to inhibit dihydrofolate reductase (DHFR) is also tested using homogenates of calf liver, rat liver and cultures of P. falciparum. Atrazine's ability to inhibit mammalian DHFR (i.e., calf DHFR and rat DHFR) as well as malarial DHFR is determined using standard enzyme assays and the Michaelis-Menton analysis. The Michaelis-Menton hypothesis states that a complex is formed between an enzyme and its substrate and that the complex then dissociates to yield free enzyme and the reaction products, with the rate of dissociation determining the overall rate of substrate-product conversion. For a more complete review of the Michaelis constant, see Benet et al., 1996, Pharmacokinetics, Chapter 1:3-27, In Goodman & Gilman's The Pharmacological Basis of Therapeutics, Ninth Edition, McGraw-Hill; and Ross, 1996, Pharmacodynamics, Chapter 2:29-41, Id.

rat DHFR = biological target: T2, rat DHFR (Rattus norvegicus, UniProt Q920D2); test: DHFR enzyme assay, rat liver homogenate; type: biochemical
T2 construct: tested using homogenates of calf liver, rat liver and cultures of P. falciparum; from tissue; host or cells: rat liver homogenate
T2 sequence (Q920D2 1-187): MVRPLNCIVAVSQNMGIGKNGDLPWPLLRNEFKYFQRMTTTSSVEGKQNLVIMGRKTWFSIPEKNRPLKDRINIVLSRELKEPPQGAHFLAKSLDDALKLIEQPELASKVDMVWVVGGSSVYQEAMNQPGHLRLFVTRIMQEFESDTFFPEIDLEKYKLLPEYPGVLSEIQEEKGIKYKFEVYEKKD
Experimental: as §6

malarial DHFR = test: DHFR enzyme assay, cultures of P. falciparum; type: biochemical
Experimental: as §6

P. berghei = test: In vivo efficacy against P. berghei in rats, single oral dose; set-up: species or system rat; conditions: single oral dose (Chloroquine 20 mg/kg, Atrazine 100 mg/kg) 4 h after inoculation; for Parasitemia Day 4: ethanol control 24%; for Parasitemia Day 11: ethanol control 42%
Experimental: Rats weighing 60-70 gms were inoculated with P. berghei infected rat red blood cells. […] Blood was obtained 4 days and 11 days later and parasitemia assessed using light microscopy of blood smears. The percent parasitemia (i.e., the presence of parasites in the blood) was then determined for each group and the data are summarized in the table below: […]

P. falciparum = test: Isobologram analysis of chloroquine and atrazine in vitro against P. falciparum; type: cell-based, Plasmodium falciparum; conditions: each drug alone at its ID50, or combinations of the stated fractions of each ID50
Experimental: Drugs can interact in additive, antagonistic or synergistic manner. See Berenbaum, J. Infect. Dis., 137:122-130, 1978. The isobologram assay permits determination of the type of interaction that occurs between drugs of interest. The ID50, or […], for both drugs was calculated.
Next, the drugs were tested in vitro at the ID50 for each drug alone and various combinations of drugs as described below:
These combinations of drugs were tested in vitro against P. falciparum and the data analyzed.

[9] = system: wild type Plasmodium falciparum; test: In vitro red blood cell culture infected with wild type Plasmodium falciparum, percent RBCs infected; type: cell-based; conditions: 0.006 μM to 0.4 μM
[10] = rats given a single injection; cited from earlier work
[11] = 48 hrs of treatment, 0.02 μM, control 35%
[12] = 48 hrs of treatment, 0.2 μM, control 35%
[13] = 48 hrs of treatment, 2.0 μM, control 35%
[14] = wild type, 96 hrs of treatment, 0.02 μM, control 18

## CCNc1nc(NC(C)C)nc(SC)n1 [ametryn, 2-ethylamino-4-isopropylamino-6-thiomethoxy-s-triazine]
[1]; [11]
  Red Blood Cell Infection Rate: 20%
[1]; [12]
  Red Blood Cell Infection Rate: 11%
[1]; [13]
  Red Blood Cell Infection Rate: 10%
[1]; 48 hrs of treatment
  effectiveness compared with chloroquine (text to Table 2): less effective

## CCNc1nc(Cl)nc(NC(C)C)n1 [atrazine, 2-chloro-4-ethylamino-6-isopropylamino-s-triazine]
[1]; [11]
  Red Blood Cell Infection Rate: 3%
[1]; [12]
  Red Blood Cell Infection Rate: 0%
[1]; [13]
  Red Blood Cell Infection Rate: 0%
[1]; 48 hrs of treatment
  effectiveness compared with chloroquine (text to Table 2): substantially similar in effectiveness as chloroquine
[1]; low concentrations, 48 hrs or 96 hrs after treatment
  percentage of RBCs infected with P. falciparum (FIGS. 1-4): relatively low percentage of the RBCs being infected
[1]; [14]
  Red Blood Cell Infection Rate: 3%
[2]
  percentage of RBCs infected with mefloquine-resistant P. falciparum: relatively low percentage of the RBCs being infected
  Red Blood Cell Infection Rate: 3%
[2]; mefloquine resistant, 48 and 96 hours
  effectiveness against resistant parasite (FIGS. 8, 9): effective against several classic forms of resistance
[3]
  percentage of RBCs infected with chloroquine-resistant P. falciparum: relatively low percentage of the RBCs being infected
  Red Blood Cell Infection Rate: 4%
[3]; chloroquine resistant, 48 and 96 hours
  effectiveness against resistant parasite (FIGS. 8, 9): effective against several classic forms of resistance
[4]; multi-drug resistant, 48 and 96 hours
  effectiveness against resistant parasite (FIGS. 8, 9): effective against several classic forms of resistance
[4]
  Red Blood Cell Infection Rate: 3%
[5]
  percentage of RBCs infected with antifolate-resistant P. falciparum: relatively low percentage of the RBCs being infected
[6]
  percentage of RBCs infected with P. berghi: relatively low percentage of the RBCs being infected
Plasmodium berghi
  in vivo percentage of RBCs infected with P. berghi compared to non-treated controls (FIG. 6): disease dramatically reduced
Toxoplasma gondii
  percentage of fibroblast cells infected with T. gondii: relatively low percentage of the cells being infected
Wild type yeast
  yeast growth (FIG. 7): Neither chloroquine (Clq) nor atrazine affected growth
[7]
  yeast growth (FIG. 7): Neither chloroquine (Clq) nor atrazine affected growth
[8]
  yeast growth (FIG. 7): Neither chloroquine (Clq) nor atrazine affected growth
Calf DHFR
  inhibition of DHFR: does not inhibit DHFR
Rat DHFR
  inhibition of DHFR: does not inhibit DHFR
Malarial DHFR
  inhibition of DHFR: does not inhibit DHFR
P. berghei
  Parasitemia Day 4: 6.0%
  Parasitemia Day 11: 10.5%
P. falciparum
  Percent Growth Inhibition: 58%
[9]
  effectiveness compared with chloroquine (FIG. 5): as effective and potent as chloroquine
[10]
  LD50: ~3000 mg/kg

## CCN(CC)CCCC(C)Nc1ccnc2cc(Cl)ccc12 (stereo not shown) [chloroquine, reference compound]
[1]; [11]
  Red Blood Cell Infection Rate: 4%
[1]; [12]
  Red Blood Cell Infection Rate: 0%
[1]; [13]
  Red Blood Cell Infection Rate: 0%
[1]; [14]
  Red Blood Cell Infection Rate: 3%
[2]
  Red Blood Cell Infection Rate: 13%
[3]
  percentage of RBCs infected with chloroquine-resistant P. falciparum: significantly higher level of RBCs being infected
  Red Blood Cell Infection Rate: 28%
[4]
  Red Blood Cell Infection Rate: 22%
Plasmodium berghi
  in vivo percentage of RBCs infected with P. berghi compared to non-treated controls (FIG. 6): disease dramatically reduced
[7]
  yeast growth (FIG. 7): Neither chloroquine (Clq) nor atrazine affected growth
[8]
  yeast growth (FIG. 7): Neither chloroquine (Clq) nor atrazine affected growth
P. berghei
  Parasitemia Day 4: 5.8%
  Parasitemia Day 11: 11%
P. falciparum
  Percent Growth Inhibition: 60%

## CCNc1nc(Cl)nc(NC(C)(C)C#N)n1 [cyanazine, 2-[[4-chloro-6-(ethylamino)-s-triazin-2-yl]amino]-2-methyl propionitrile]
[1]; [11]
  Red Blood Cell Infection Rate: 18%
[1]; [12]
  Red Blood Cell Infection Rate: 17%
[1]; [13]
  Red Blood Cell Infection Rate: 16%
[1]; 48 hrs of treatment
  effectiveness compared with chloroquine (text to Table 2): less effective

## OC(c1cc(C(F)(F)F)nc2c(C(F)(F)F)cccc12)C1CCCCN1 (stereo not shown) [mefloquine, reference compound]
[2]
  percentage of RBCs infected with mefloquine-resistant P. falciparum: significantly higher level of RBCs being infected

## CC(C)Nc1nc(Cl)nc(NC(C)C)n1 [propazine, 2-chloro-4,6-di(isopropylamino)-s-triazine]
[1]; [11]
  Red Blood Cell Infection Rate: 5%
[1]; [12]
  Red Blood Cell Infection Rate: 1%
[1]; [13]
  Red Blood Cell Infection Rate: 1%
[1]; 48 hrs of treatment
  effectiveness compared with chloroquine (text to Table 2): substantially similar in effectiveness as chloroquine

## CCNc1nc(Cl)nc(NCC)n1 [simazine, 2-chloro-4,6-di(ethylamino)-s-triazine]
[1]; [11]
  Red Blood Cell Infection Rate: 3%
[1]; [12]
  Red Blood Cell Infection Rate: 0%
[1]; [13]
  Red Blood Cell Infection Rate: 0%
[1]; 48 hrs of treatment
  effectiveness compared with chloroquine (text to Table 2): substantially similar in effectiveness as chloroquine

## c1ncncn1 [triazine]
[5]
  percentage of RBCs infected with antifolate-resistant P. falciparum: significantly higher level of RBCs being infected
